{
  "source": "patent US20210403866A1",
  "about": "“ENHANCED DENDRITIC CELL IMMUNE ACTIVATION BY COMBINED INHIBITION OF NR2F6 WITH CANNIBIDIOL” (Regen Biopharma, Inc., priority 2019, published 2021)",
  "key": {"WT1 mRNA [1]": {"tested_on": "WT1 mRNA", "settings": "human MIAPaCa2 PC cells; cited from earlier work"}, "WT1 mRNA [2]": {"tested_on": "WT1 mRNA", "settings": "GEM-treated MIAPaCa2-bearing SCID mice; cited from earlier work"}, "[3]": {"tested_on": "murine WT1-transfected C1498 (mWT1-C1498)", "settings": "increasing doses; cited from earlier work"}, "WT1 mRNA [4]": {"tested_on": "WT1 mRNA", "settings": "mWT1-C1498, compared with DAC treatment; cited from earlier work"}, "allogeneic T cells [5]": {"tested_on": "allogeneic T cells", "test": "Mixed Lymphocyte Reaction, dendritic cells added to allogeneic T cells, tritiated thymidine", "format": "cell-based", "settings": "cannabidiol 1 and 2 micromolar added to dendritic cells; 40,000 allogeneic T cells; 96 hours culture; FIG. 1", "procedure": "(§1) Dendritic cells where added to allogeneic T cells in 96 well plates, wherein allogeneic T cells where added at 40,000 cells per plate and the indicated number of dendritic cells added. Culture was performed for 96 hours with tritiated thymidine added at the last 12 hours of culture at a concentration of 1 microcurie per well. Black bars indicate no cannabidiol added to dendritic cells, striped bars indicate 1 micro Molar and white indicate 2 micromolar. […] Results are shown in graph, FIG. 1."}, "allogeneic T cells [6]": {"tested_on": "allogeneic T cells", "test": "Mixed Lymphocyte Reaction with dendritic cells silenced for NR2F6", "format": "cell-based", "settings": "increased amounts of cannabidiol added to dendritic cells silenced for NR2F6; FIG. 2", "procedure": "as §1\nMLR was performed as in example 1. All cells where silenced for NR2F6. An increase in allostimulatory activity was observed. Results are shown in graph, FIG. 2."}},
  "data": [
    {"smiles": "Nc1ccn([C@@H]2O[C@H](CO)[C@@H](O)C2(F)F)c(=O)n1", "note": "[GEM, gemcitabine]", "values": [
      {"measurement": "WT1 mRNA levels", "setting": "WT1 mRNA [1]", "result": "enhanced WT1 mRNA levels"},
      {"measurement": "WT1 mRNA in tumor tissue", "setting": "WT1 mRNA [2]", "result": "increase in WT1 mRNA"}
    ]},
    {"smiles": "Nc1ncn([C@@H]2O[C@H](CO)[C@@H](O)[C@H]2O)c(=O)n1", "note": "[AZA, azacitidine]", "values": [
      {"measurement": "number of viable cells", "setting": "[3]", "result": "decreased the number of viable cells in a dose- or time-dependent manner"},
      {"measurement": "up-regulation of WT1 mRNA", "setting": "WT1 mRNA [4]", "result": "induced up-regulation of mRNA, but not to the same degree as with DAC treatment"}
    ]},
    {"smiles": "C=C(C)[C@@H]1CCC(C)=C[C@H]1c1c(O)cc(CCCCC)cc1O", "note": "[cannabidiol]", "values": [
      {"measurement": "T cell activation in Mixed Lymphocyte Reaction", "setting": "allogeneic T cells [5]", "result": "dose dependent suppression of T cell activation"},
      {"measurement": "allostimulatory activity in MLR", "setting": "allogeneic T cells [6]", "result": "dose dependent increase in allostimulatory activity"}
    ]}
  ]
}
